Results taken from patent US20260191768A1, “PHARMACEUTICAL COMPOSITION CONTAINING HIGH CONCENTRATION OF OPIRANSERIN” (VIVOZON, INC., priority 2022, published 2026).
Counter-ions that a name gives are not always drawn.

Experiments:
Type in all cases: physicochemical
[1] = Room temperature stability of dissolved opiranserin hydrochloride; settings: for Opiranserin hydrochloride concentration, Initial: prepared at 40° C. for 3 hours
Experimental: Among solvents showing high solubility in Experimental Example 1, the solvents that have no irritation or can minimize irritation when preparing medicines were selected as shown in Table 2. Then, the solubility and short-term room temperature stability of opiranserin hydrochloride according to the concentration content were estimated. Each preparation was prepared by adjusting the solvent according to the concentration, adding an excess amount of opiranserin hydrochloride, and stirring at 40° C. for 3 hours. The preparation was centrifuged, the supernatant was transferred to a glass vial, and stored at room temperature to observe properties and analyze content. Liquid chromatography (HPLC) was used to analyze the content of opiranserin hydrochloride, and sampling was carried out upon completion of preparation and after storage at room temperature for 65 hours.

[2] = Screening of hydrotropes for improving solubility of opiranserin hydrochloride
Experimental: After adding 50 mL of water for injection into a 200 mL beaker, a weight of hydrotrope corresponding to the target content was added thereto and stirred at room temperature to completely dissolve it. Then, a weight of opiranserin hydrochloride corresponding to the target concentration was added and stirred at room temperature to completely dissolve it. If it was not completely dissolved in some solvents, the temperature was raised to 40° C. and additional stirring was carried out. When the added materials were completely dissolved, water for injection was added to the beaker to reach the 100 mL mark and further stirred to ensure that the composition was completely mixed. The prepared compositions were filtered using a 0.2 μm syringe filter and then dispensed into vials for injection.

[3] = Solubility measurement of opiranserin hydrochloride according to solvents (HPLC); settings: for solubility at 7 days / solubility at 3 h: thermodynamic from solid; for solubility at 7 days: 25° C./7 days
Experimental: An excess amount of opiranserin hydrochloride was added to the solvents shown in Table 1, stirred under the following conditions, centrifuged and filtered, and the filtrate was diluted. The solubility of the drug was measured using high-performance liquid chromatography (HPLC).

[4] = Solubility of opiranserin hydrochloride as stated in the description; settings: solvent not stated; regarded as "sparingly soluble"
[5] = Solvent 27: 1 w/v % Poloxamer 124
[6] = Solvent 28: 5 w/v % Poloxamer 124
[7] = Solvent 29: 1 w/v % Propylene glycol
[8] = Solvent 30: 5 w/v % Propylene glycol

CCCCOc1c(OC)cc(C(=O)NCC2(N(C)C)CCOCC2)cc1OC [Opiranserin hydrochloride, 4-butoxy-N-((4-(dimethylamino)tetrahydro-2H-pyran-4-yl)methyl)-3,5-dimethoxy benzamide]
Change in properties after storage at room temperature for 65 hours ([1]; Solvent 25: 1 w/v % Triacetin): Recrystallization generation | Opiranserin hydrochloride concentration, After storage at room temperature for 65 hours ([1]; Solvent 25: 1 w/v % Triacetin): 44.33 mg/mL | Opiranserin hydrochloride concentration, Initial ([1]; Solvent 25: 1 w/v % Triacetin): 78.6 mg/mL | Change in properties after storage at room temperature for 65 hours ([1]; Solvent 26: 6 w/v % Triacetin): Recrystallization generation | Opiranserin hydrochloride concentration, After storage at room temperature for 65 hours ([1]; Solvent 26: 6 w/v % Triacetin): 38.1 mg/mL | Change in properties after storage at room temperature for 65 hours ([1]; Solvent 26: 6 w/v % Triacetin, listed as opiranserin hydrochloride): recrystallization of needle-shaped structure was generated | Opiranserin hydrochloride concentration, Initial ([1]; Solvent 26: 6 w/v % Triacetin): 86.1 mg/mL | Change in properties after storage at room temperature for 65 hours [1, 5]: Recrystallization generation | Opiranserin hydrochloride concentration, After storage at room temperature for 65 hours [1, 5]: 41.1 mg/mL | Opiranserin hydrochloride concentration, Initial [1, 5]: 72.1 mg/mL | Change in properties after storage at room temperature for 65 hours [1, 6]: Recrystallization generation | Opiranserin hydrochloride concentration, After storage at room temperature for 65 hours [1, 6]: 42.5 mg/mL | Opiranserin hydrochloride concentration, Initial [1, 6]: 83.8 mg/mL | Change in properties after storage at room temperature for 65 hours [1, 7]: Recrystallization generation | Opiranserin hydrochloride concentration, After storage at room temperature for 65 hours [1, 7]: 34.8 mg/mL | Opiranserin hydrochloride concentration, Initial [1, 7]: 61.8 mg/mL | Change in properties after storage at room temperature for 65 hours [1, 8]: Recrystallization generation | Opiranserin hydrochloride concentration, After storage at room temperature for 65 hours [1, 8]: 34.8 mg/mL | Opiranserin hydrochloride concentration, Initial [1, 8]: 74.0 mg/mL | Concentration of opiranserin hydrochloride that could be dissolved ([2]; sodium benzoate used as a hydrotrope): up to 300 mg/mL | Concentration of opiranserin hydrochloride that could be stably dissolved ([2]; sodium salicylate used as a hydrotrope): up to 100 mg/mL | Concentration of opiranserin hydrochloride that could be stably dissolved ([2]; trisodium citrate dihydrate used as a hydrotrope): up to 100 mg/mL | solubility at 7 days ([3]; 1 w/v % Caprylocaproyl polyoxyl 8 glyceride, 25 °C, aqueous with cosolvent or surfactant or cyclodextrin, Solvent 7: 1 w/v % Caprylocaproyl polyoxyl 8 glyceride): 46.2 mg/mL | solubility at 7 days ([3]; 1 w/v % Hydroxpropyl-beta-cyclodextrin, 25 °C, aqueous with cosolvent or surfactant or cyclodextrin, Solvent 10: 1 w/v % Hydroxpropyl-beta-cyclodextrin): 49.2 mg/mL | solubility at 7 days ([3]; 1 w/v % Macrogol 15 hydroxystearate, 25 °C, aqueous with cosolvent or surfactant or cyclodextrin, Solvent 8: 1 w/v % Macrogol 15 hydroxystearate): 44 mg/mL | solubility at 7 days ([3]; 1 w/v % PEG-6 caprylic/capric glyceride, 25 °C, aqueous with cosolvent or surfactant or cyclodextrin, Solvent 16: 1 w/v % PEG-6 caprylic/capric glyceride): 49 mg/mL | solubility at 3 h ([3]; 1 w/v % Poloxamer 124, 40 °C, aqueous with cosolvent or surfactant or cyclodextrin, Solvent 21: 1 w/v % Poloxamer 124, 40° C./3 hours): 72.1 mg/mL | solubility at 7 days ([3]; 1 w/v % Polyoxyl 35 castor oil, 25 °C, aqueous with cosolvent or surfactant or cyclodextrin, Solvent 6: 1 w/v % Polyoxyl 35 castor oil): 42.1 mg/mL | solubility at 7 days ([3]; 1 w/v % Polysorbate 80, 25 °C, aqueous with cosolvent or surfactant or cyclodextrin, Solvent 9: 1 w/v % Polysorbate 80): 44.7 mg/mL | solubility at 3 h ([3]; 1 w/v % Propylene glycol, 40 °C, water, Solvent 23: 1 w/v % Propylene glycol, 40° C./3 hours): 61.8 mg/mL | solubility at 7 days ([3]; 1 w/v % Triacetin, 25 °C, water, Solvent 13: 1 w/v % Triacetin): 49.7 mg/mL | solubility at 3 h ([3]; 1 w/v % Triacetin, 40 °C, water, Solvent 19: 1 w/v % Triacetin, 40° C./3 hours): 78.6 mg/mL | solubility at 7 days ([3]; 3 w/v % Hydroxpropyl-beta-cyclodextrin, 25 °C, aqueous with cosolvent or surfactant or cyclodextrin, Solvent 11: 3 w/v % Hydroxpropyl-beta-cyclodextrin): 55.6 mg/mL | solubility at 7 days ([3]; 3 w/v % PEG-6 caprylic/capric glyceride, 25 °C, aqueous with cosolvent or surfactant or cyclodextrin, Solvent 17: 3 w/v % PEG-6 caprylic/capric glyceride): 57 mg/mL | solubility at 7 days ([3]; 3 w/v % Triacetin, 25 °C, water, Solvent 14: 3 w/v % Triacetin): 57.1 mg/mL | solubility at 3 h ([3]; 5 w/v % Poloxamer 124, 40 °C, aqueous with cosolvent or surfactant or cyclodextrin, Solvent 22: 5 w/v % Poloxamer 124, 40° C./3 hours): 83.8 mg/mL | solubility at 3 h ([3]; 5 w/v % Propylene glycol, 40 °C, aqueous with cosolvent or surfactant or cyclodextrin, Solvent 24: 5 w/v % Propylene glycol, 40° C./3 hours): 74 mg/mL | solubility at 7 days ([3]; 6 w/v % Hydroxpropyl-beta-cyclodextrin, 25 °C, aqueous with cosolvent or surfactant or cyclodextrin, Solvent 12: 6 w/v % Hydroxpropyl-beta-cyclodextrin): 63.3 mg/mL | solubility at 7 days ([3]; 6 w/v % PEG-6 caprylic/capric glyceride, 25 °C, aqueous with cosolvent or surfactant or cyclodextrin, Solvent 18: 6 w/v % PEG-6 caprylic/capric glyceride): 67.6 mg/mL | solubility at 7 days ([3]; 6 w/v % Triacetin, 25 °C, aqueous with cosolvent or surfactant or cyclodextrin, Solvent 15: 6 w/v % Triacetin): 72.7 mg/mL | solubility at 3 h ([3]; 6 w/v % Triacetin, 40 °C, aqueous with cosolvent or surfactant or cyclodextrin, Solvent 20: 6 w/v % Triacetin, 40° C./3 hours): ~86 mg/mL | solubility at 7 days ([3]; 100% Ethanol, 25 °C, organic solvent or mixture, Solvent 2: 100% Ethanol): 25.1 mg/mL | solubility at 7 days ([3]; 100% Methanol, 25 °C, organic solvent or mixture, Solvent 3: 100% Methanol): 36 mg/mL | solubility at 7 days ([3]; 100% Polyethylene, 25 °C, organic solvent or mixture, Solvent 5: 100% Polyethylene): 2.59 mg/mL | solubility at 7 days ([3]; 100% Propylene glycol, 25 °C, organic solvent or mixture, Solvent 4: 100% Propylene glycol): 13 mg/mL | solubility at 7 days ([3]; Purified water, 25 °C, water, Solvent 1: Purified water): 45.2 mg/mL | Opiranserin hydrochloride Solubility ([3]; Solvent 20: 6 w/v % Triacetin, 40° C./3 hours): 86.1 mg/mL | solubility [4]: 25 mg/mL
